Measurements reported in ChEMBL document CHEMBL4699472, “Novel potent and selective pyrazolylpyrimidine-based SYK inhibitors” (Bioorg Med Chem Lett, 2020).

Legend:
SUD4 = experiment: Growth inhibition of human SU-DHL-4 cells after 72 hrs; type: functional
[1] = Intrinsic clearance in human liver microsomes; type: ADME, Microsome; settings: read-out: CLH
[2] = target: Tyrosine-protein kinase SYK (Homo sapiens, UniProt P43405); experiment: Inhibition of SYK (unknown origin)
[3] = Lipophilicity, logD of compound in buffer:octanol (100:1) at pH 7.4 by shake flask method; type: physicochemical
[4] = Intrinsic clearance in rat hepatocytes measured per million cells; type: ADME, cell-based, Hepatocyte; settings: read-out: CLH
[5] = target: Voltage-gated inwardly rectifying potassium channel KCNH2 (Homo sapiens, UniProt Q12809); experiment: Inhibition of human ERG assessed as tail current by plate-based planar patch clamp assay
[6] = Protein binding in Han Wistar rat plasma assessed as unbound fraction; type: ADME, cell-free
[7] = Volume of distribution at steady state in Han Wistar rat at 2 umol/kg, po and 1 umol/kg, iv; type: ADME, organism-based; settings: in vivo, dose 1 µmol/kg, read-out: Vdss
[8] = Clearance in Han Wistar rat at 2 umol/kg, po and 1 umol/kg, iv; type: ADME, organism-based; settings: in vivo, dose 1 µmol/kg
[9] = Oral bioavailability in Han Wistar rat at 2 umol/kg; type: ADME, organism-based; settings: in vivo, at 2 µmol/kg
[10] = Dissociation constant, pKa of the compound; type: physicochemical
[11] = Clearance in Beagle dog at 2 umol/kg, po and 1 umol/kg, iv relative to hepatic blood flow; type: ADME, organism-based, Canis lupus familiaris; settings: in vivo, at 2 µmol/kg
[12] = Clearance in Beagle dog at 2 umol/kg, po and 1 umol/kg, iv; type: ADME, organism-based, Canis lupus familiaris; settings: in vivo, dose 2 µmol/kg
[13] = Oral bioavailability in Beagle dog at 2 umol/kg; type: ADME, organism-based, Canis lupus familiaris; settings: in vivo, at 2 µmol/kg
[14] = Intrinsic clearance in dog hepatocytes measured per million cells; type: ADME, cell-based, Canis lupus familiaris, Hepatocyte; settings: read-out: CLH
[15] = Protein binding in Beagle dog plasma assessed as unbound fraction; type: ADME, cell-free, Canis lupus familiaris
[16] = Volume of distribution at steady state in Beagle dog at 2 umol/kg, po and 1 umol/kg, iv; type: ADME, organism-based, Canis lupus familiaris; settings: in vivo, dose 2 µmol/kg, read-out: Vdss

Voltage-gated inwardly rectifying potassium channel KCNH2, sequence (Q12809 whole entry): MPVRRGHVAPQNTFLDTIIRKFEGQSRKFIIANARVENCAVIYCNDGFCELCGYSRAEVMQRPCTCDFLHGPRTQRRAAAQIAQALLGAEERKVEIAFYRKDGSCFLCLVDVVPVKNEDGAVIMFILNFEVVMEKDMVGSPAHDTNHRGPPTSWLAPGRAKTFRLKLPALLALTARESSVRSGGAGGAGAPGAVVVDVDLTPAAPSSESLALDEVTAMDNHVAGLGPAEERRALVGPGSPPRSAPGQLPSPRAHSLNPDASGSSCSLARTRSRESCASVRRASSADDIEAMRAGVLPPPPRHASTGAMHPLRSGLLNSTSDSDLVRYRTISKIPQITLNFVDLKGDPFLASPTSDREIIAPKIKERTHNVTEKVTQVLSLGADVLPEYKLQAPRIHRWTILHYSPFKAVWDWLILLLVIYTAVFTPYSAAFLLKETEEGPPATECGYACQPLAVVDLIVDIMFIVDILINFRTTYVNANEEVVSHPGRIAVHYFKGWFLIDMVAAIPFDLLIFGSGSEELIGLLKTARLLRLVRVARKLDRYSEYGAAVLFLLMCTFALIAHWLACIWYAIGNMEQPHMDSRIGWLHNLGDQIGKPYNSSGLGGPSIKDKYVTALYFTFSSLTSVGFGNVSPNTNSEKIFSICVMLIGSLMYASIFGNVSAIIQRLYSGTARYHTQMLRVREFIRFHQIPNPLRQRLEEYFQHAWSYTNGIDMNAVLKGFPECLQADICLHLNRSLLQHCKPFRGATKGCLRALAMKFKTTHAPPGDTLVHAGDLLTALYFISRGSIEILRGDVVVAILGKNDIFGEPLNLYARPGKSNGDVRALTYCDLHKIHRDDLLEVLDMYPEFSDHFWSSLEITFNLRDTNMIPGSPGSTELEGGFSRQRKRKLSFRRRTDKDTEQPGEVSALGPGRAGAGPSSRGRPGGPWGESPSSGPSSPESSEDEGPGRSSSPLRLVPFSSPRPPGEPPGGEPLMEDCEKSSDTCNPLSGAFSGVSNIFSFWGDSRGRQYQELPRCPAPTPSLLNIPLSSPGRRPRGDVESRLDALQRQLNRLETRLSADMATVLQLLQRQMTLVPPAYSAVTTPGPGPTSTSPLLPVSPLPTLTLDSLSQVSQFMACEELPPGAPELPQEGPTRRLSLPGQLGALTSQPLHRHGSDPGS

microsomal CLint [1] | IC50 [2] | logD [3] | hepatocyte CLint [4] | SMILES | GI50 (SUD4) | IC50 [5] | other results
129 µL/min/mg | 0.2 nM | 3.1 | 17 µL/min/1e6 cells | Cc1nnc(-c2nn(C)c3ccc(Nc4nccc(-n5cc(N[C@@H]6CCOC[C@@H]6N)c(C)n5)n4)cc23)o1 | 1300 nM | 11000 nM | 
7 µL/min/mg | 0.88 nM | 0.6 | 14 µL/min/1e6 cells | CNC(=O)c1nc(C)n2ccc(Nc3nccc(-n4cc(OCCN)cn4)n3)cc12 |  | > 39000 nM | 
32 µL/min/mg | 3.2 nM | 1.6 | 6 µL/min/1e6 cells | CNC(=O)c1nc(C)n2ccc(Nc3nccc(-n4cc(N[C@@H]5CCOC[C@@H]5N)c(C)n4)n3)cc12 | 810 nM | > 39000 nM | 
32 µL/min/mg | 0.34 nM | 1.6 | 8 µL/min/1e6 cells | CNC(=O)c1nn(C)c2ccc(Nc3nccc(-n4cc(N[C@@H]5CCOC[C@@H]5N)c(C)n4)n3)cc12 | 560 nM |  | fraction unbound [6]: 0.25; Vd [7]: 5.4 L/kg; clearance [8]: 76 mL/min/kg; bioavailability [9]: 3.8%
8 µL/min/mg | 1.5 nM | 0.7 | < 1 µL/min/1e6 cells | CNC(=O)c1nn(C)c2ccc(Nc3nccc(-n4cc(NC5CNC5)c(C)n4)n3)cc12 |  |  | 
28 µL/min/mg | 0.34 nM | 2.3 | 8 µL/min/1e6 cells | CNC(=O)c1nn(C)c2ccc(Nc3nccc(-n4cc(NCC5(N)CC5)c(C)n4)n3)cc12 | 2800 nM |  | fraction unbound [6]: 0.056; Vd [7]: 1.3 L/kg; clearance [8]: 13 mL/min/kg; bioavailability [9]: 29%
 |  |  |  | CNC(=O)c1nn(C)c2ccc(Nc3nccc(-n4cc(CN(C)C)c(C)n4)n3)cc12 | 240 nM |  | 
< 3 µL/min/mg | 1.3 nM | 1.9 | 13 µL/min/1e6 cells | CNC(=O)c1nn(C)c2ccc(Nc3nccc(-n4cc(OC5CNC5)c(C)n4)n3)cc12 |  |  | 
 | 2.9 nM |  |  | CNC(=O)c1nn(C)c2ccc(Nc3nccc(-n4cc(O[C@H]5CCNC5)c(C)n4)n3)cc12 |  |  | 
 | 11 nM |  |  | CNC(=O)c1nn(C)c2ccc(Nc3nccc(-n4cc(N[C@H]5CCNC5)c(C)n4)n3)cc12 |  |  | 
< 3 µL/min/mg | 0.23 nM |  | 2 µL/min/1e6 cells | CNC(=O)c1nc(C)n2ccc(Nc3nccc(-n4cc(NCCN)cn4)n3)cc12 |  | > 39000 nM | 
 | 62 nM |  |  | Cc1nn(-c2ccnc(Nc3ccc4c(c3)c(Cl)nn4C)n2)cc1N[C@@H]1CCOC[C@@H]1N |  |  | 
 | 7.9 nM | 2 |  | CNC(=O)c1nn(C)c2ccc(Nc3nccc(-n4cc(N[C@@H]5CCN(C)C5)c(C)n4)n3)cc12 |  |  | 
44 µL/min/mg | 0.4 nM | 2.9 | 25 µL/min/1e6 cells | CNC(=O)c1nn(C)c2ccc(Nc3nccc(-n4cc(O[C@H]5CNC[C@H]5F)c(C)n4)n3)cc12 | 1400 nM |  | 
37 µL/min/mg |  |  |  | Cc1nn(-c2ccnc3[nH]c(-c4cccc5c4ccn5C)nc23)cc1CN(C)C |  |  | 
71 µL/min/mg | 0.22 nM | 2.4 | 8 µL/min/1e6 cells | Cc1nn(-c2ccnc(Nc3ccc4c(c3)c(C(=O)C(F)(F)F)cn4C)n2)cc1N[C@@H]1CCOC[C@@H]1N |  | 4700 nM | 
20 µL/min/mg | 0.24 nM | 1.3 | 13 µL/min/1e6 cells | CNC(=O)c1nc(C)n2ccc(Nc3nccc(-n4cc(CN(C)C)cn4)n3)cc12 | 230 nM | 7100 nM | 

SMILES | microsomal CLint [1] | IC50 [2] | logD [3] | hepatocyte CLint [4] | GI50 (SUD4) | IC50 [5] | other results
CNC(=O)c1nn(C)c2ccc(Nc3nccc(-n4cc(N[C@@H]5CCNC5)c(C)n4)n3)cc12 | < 10 µL/min/mg | 0.6 nM | 0.3 | 3 µL/min/1e6 cells | 170 nM | > 39000 nM | fraction unbound [6]: 0.24; pKa [10]: 9.5; Vd [7]: 13 L/kg; clearance [8]: 60 mL/min/kg; bioavailability [9]: 0%
CNC(=O)c1nn(C)c2ccc(Nc3nccc(-n4cc(O[C@@H]5CCCNC5)c(C)n4)n3)cc12 | 8 µL/min/mg | 0.19 nM | 1.7 | 9 µL/min/1e6 cells | 350 nM | 2500 nM | 
CNC(=O)c1nn(C)c2ccc(Nc3nccc(-n4cc(N[C@@H]5CCCNC5)c(C)n4)n3)cc12 | < 5 µL/min/mg | 0.73 nM | 0.6 | 3 µL/min/1e6 cells | 300 nM | > 39000 nM | fraction unbound [6]: 0.33; Vd [7]: 19 L/kg; clearance [8]: 78 mL/min/kg; bioavailability [9]: 0%
CNC(=O)c1nc(C)n2ccc(Nc3nccc(-n4cc(N[C@@H]5CCOC[C@@H]5N)cn4)n3)cc12 | 20 µL/min/mg |  | 1.7 | 14 µL/min/1e6 cells | 260 nM | > 39000 nM | 
CNC(=O)c1nn(C)c2ccc(Nc3nccc(-n4cc(N[C@H]5CNC[C@@H]5F)c(C)n4)n3)cc12 | 28 µL/min/mg | 0.3 nM | 1.7 | 8 µL/min/1e6 cells | 970 nM | 19000 nM | pKa [10]: 7.8
CNC(=O)c1nn(C)c2ccc(Nc3nccc(-n4cc(O[C@@H]5CCNC5)c(C)n4)n3)cc12 | < 5 µL/min/mg | 0.51 nM | 1.4 | 13 µL/min/1e6 cells | 510 nM | 5200 nM | 
CNC(=O)c1nn(C)c2ccc(Nc3nccc(-n4cc(N[C@@H]5CCOC[C@@H]5N)cn4)n3)cc12 | 17 µL/min/mg | 0.33 nM | 2.2 | 4 µL/min/1e6 cells | 220 nM | 15000 nM | CL [11]: 40%; fraction unbound [6]: 0.28; clearance [12]: 16 mL/min/kg; Vd [7]: 9.8 L/kg; bioavailability [13]: 2%; hepatocyte CLint [14]: < 1 µL/min/1e6 cells; clearance [8]: 82 mL/min/kg; fraction unbound [15]: 0.27; bioavailability [9]: 1.8%; Vd [16]: 5.7 L/kg
